Assay results from article PMC12383145, “Fluorescent Peptides Internalize HeLa Cells and Kill Multidrug-Resistant Clinical Bacterial Isolates” (Antibiotics, 2025).
Residues, ends and D or L forms follow the SMILES beside them. *: point of attachment. RhodamineB = CCN(CC)c1ccc2c(-c3ccccc3C(=O)*)c3ccc(=[N+](CC)CC)cc-3oc2c1

How the values were obtained:
Type in all cases: cell-based
HeLa cells = assay: Fluorescence confocal microscopy, colocalization analysis (ImageJ JaCoP); conditions: 2 h at IC50, colocalization with SMA antibody
Procedure: The possible cellular distribution of the peptides was determined by colocalization analysis of the Rhodamine B fluorescent signal, with fluorophores used to stain the nucleus (Hoechst 33342) and cytoplasm components (SMA antibody). ImageJ 1.54f analysis software and the JaCoP plugin were used to analyze signal colocalization.
HeLa cells (>70% confluence) were seeded on sterile round coverslips in 24-well plates with DMEM + 5% FBS and incubated at 37 °C, 5% CO2 for 24 h. After adhesion, the medium was replaced, and cells were treated with fluorescent peptides at their IC50 for 2 h. Then, cells were washed with PBS under constant stirring (3 × 10 min). Cellular fixation was performed using a solution containing 2% paraformaldehyde and 1% sucrose 100 mM in PBS for 30 min, followed by PBS washes (2 × 10 min). Permeabilization was carried out using a solution of 0.1% Triton X-100 and 20 mM glycine in PBS for 10 min, followed by two additional PBS washes. Blocking was performed with 1% BSA and 20 mM glycine in PBS for 10 min. […] For the fluorescence lecture, 5 µL of Fluoromount mounting medium was applied to the slide, and the coverslip containing the cells was inverted onto the medium. Slides were allowed to be dry-protected from light, and cells were visualized using a Leica DMi8 fluorescence confocal microscope. […]

[1] = system: E. coli clinical isolate 301755 (MDR); conditions: clinical isolate 301755 (MDR, 24 h)
Procedure: (§1) E. coli isolates 1004 (susceptible), 129797 (resistant), and 301755 (MDR) were selected for evaluation. Isolate 1004 was sensitive to all antibiotics tested. […] These findings identify it as a multidrug-resistant (MDR) strain and an extended-spectrum beta-lactamase (ESBL)-producing bacterium. For S. aureus, isolates 109095, 117719, and 124653 were evaluated. All three were resistant to penicillin, indicating beta-lactamase production mediated by the blaZ gene. Studies have shown that up to 90% of S. aureus isolates worldwide are penicillin-resistant, which implies that this antibiotic is ineffective in infections caused by this pathogen. […] Isolate 124653 was resistant to penicillin, tetracycline, and erythromycin, with the latter belonging to the group of macrolides, antibiotics that inhibit protein synthesis through interaction with the 50S […] subunit. For E. faecalis three isolates were selected: strains 213 (sensitive to all the antibiotics tested), strain 82 (resistant to streptomycin), and strain 179 (resistant to gentamicin). These clinical isolates were selected to assess the antimicrobial activity of the peptide RWQWRWQWR and its analogues conjugated to fluorescent molecules in strains against strains with susceptibility profiles.
(§2) The analysis of synthesized peptides in ATCC reference strains and susceptible, resistant, and multidrug-resistant (MDR) clinical isolates was performed. The clinical isolates were obtained from the National Cancer Institute collection and were previously identified and antibiogrammed using the VITEK system. Additionally, the strains were characterized by MALDI-TOF. The strains were re-primed onto trypticase soy agar and subsequently preserved in Brain–Heart Infusion (BHI) broth containing 20% glycerol. For the MIC and MBC assays, the strains were reactivated and cultured in BHI until they reached their exponential growth phase.
(§3) The minimum inhibitory concentration (MIC) of the peptides was determined by the broth microdilution technique, according to the Clinical and Laboratory Standards Institute (CLSI) guidelines, as previously described. Briefly, bacterial strains were incubated in BHI broth at 37 °C until they reached the exponential growth phase, and inocula were adjusted to 5 × 10^6 CFU/mL using calibration curves. Serial dilutions of the peptides to be evaluated in 96-well plates were made in 90 µL of Mueller Hinton broth at concentrations ranging from 200 to 6.25 µg/mL, and 10 µL of the inoculum adjusted to 5 × 10^6 CFU/mL was added. Finally, the plates were incubated at 37 °C for 24 h, and the absorbance at 620 nm was read. As a negative control, CMH, distilled water, and 10 µL of inoculum were used; for the positive control, vancomycin was used for Gram-positive strains and ciprofloxacin for Gram-negative strains at the MICs dictated by the CLSI; as a technical control, CMH with peptone water was used, and for the growth control, CMH was used with 10 µL of inoculum.
(§4) To determine the minimum bactericidal concentration (MBC), the 96-well plates where the MIC was determined were used as a starting point. From these, an aliquot of the controls and those wells where no apparent bacterial growth was observed were spotted onto trypticase soy agar plates. The plates were incubated at 37 °C for 24 h, and the reading was taken, identifying the lowest concentration of the peptide where there was no bacterial growth as the MBC.

[2] = system: S. aureus clinical isolate 124653; conditions: clinical isolate 124653, 24 h
Procedure: as §1, §2, §3, §4

[3] = system: E. coli clinical isolate 1004 (susceptible); conditions: clinical isolate 1004 (susceptible, 24 h)
Procedure: as §1, §2, §3, §4

[4] = system: E. coli clinical isolate 129797 (resistant); conditions: clinical isolate 129797 (resistant, 24 h)
Procedure: as §1, §2, §3, §4

[5] = system: E. faecalis clinical isolate 82; conditions: clinical isolate 82, 24 h
Procedure: as §1, §2, §3, §4

[6] = system: E. faecalis clinical isolate 179; conditions: clinical isolate 179, 24 h
Procedure: as §1, §2, §3, §4

P. aeruginosa ATCC 27853 = conditions: ATCC 27853, 24 h
Procedure: as §3, §4

E. coli ATCC 25922 = conditions: ATCC 25922, 24 h
Procedure: as §3, §4

E. faecalis ATCC 29212 = conditions: ATCC 29212, 24 h
Procedure: as §3, §4

[7] = system: K. pneumoniae ATCC 700603; conditions: ATCC 700603, 24 h
Procedure: as §3, §4

S. aureus ATCC 25923 = conditions: ATCC 25923, 24 h
Procedure: as §3, §4

- Minimal inhibitory concentration (MIC) [1]: > 105 µM
- Minimal inhibitory concentration (MIC) [2]: 105 µM
- Minimal inhibitory concentration (MIC) [3]: > 105 µM
- Minimal inhibitory concentration (MIC) [4]: > 105 µM
- Minimal inhibitory concentration (MIC) [5]: 26 µM
- Minimal inhibitory concentration (MIC) [6]: > 105 µM
- Minimal inhibitory concentration (MIC) (P. aeruginosa ATCC 27853): > 105 µM
- Minimal inhibitory concentration (MIC) (E. coli ATCC 25922): > 105 µM
- Minimal inhibitory concentration (MIC) (E. faecalis ATCC 29212): 52 µM
- Minimal inhibitory concentration (MIC) [7]: > 105 µM
- Minimal inhibitory concentration (MIC) (S. aureus ATCC 25923): 26 µM
SMILES: CCN(CC)c1ccc2c(-c3ccccc3C(=O)N[C@@H](CCCNC(=N)N)C(=O)N[C@@H](Cc3c[nH]c4ccccc34)C(=O)N[C@@H](CCC(N)=O)C(=O)N[C@@H](Cc3c[nH]c4ccccc34)C(=O)N[C@@H](CCCNC(=N)N)C(=O)N[C@@H](Cc3c[nH]c4ccccc34)C(=O)N[C@@H](CCC(N)=O)C(=O)N[C@@H](Cc3c[nH]c4ccccc34)C(=O)N[C@@H](CCCNC(=N)N)C(N)=O)c3ccc(=[N+](CC)CC)cc-3oc2c1 [RhB-1, RhB-RWQWRWQWR] (RhodamineB-RWQWRWQWR-NH2)
- cellular localization (HeLa cells): internalized and distributed in the cytoplasm
- Minimal bactericidal concentration (MBC) [1]: > 105 µM
- Minimal bactericidal concentration (MBC) [2]: 105 µM
- Minimal bactericidal concentration (MBC) [3]: > 105 µM
- Minimal bactericidal concentration (MBC) [4]: > 105 µM
- Minimal bactericidal concentration (MBC) [5]: 105 µM
- Minimal bactericidal concentration (MBC) [6]: > 105 µM
- Minimal bactericidal concentration (MBC) (P. aeruginosa ATCC 27853): > 105 µM
- Minimal bactericidal concentration (MBC) (E. coli ATCC 25922): > 105 µM
- Minimal bactericidal concentration (MBC) (E. faecalis ATCC 29212): 52 µM
- Minimal bactericidal concentration (MBC) [7]: > 105 µM
- Minimal bactericidal concentration (MBC) (S. aureus ATCC 25923): 52 µM
